For series [1] the following is noted: particle size 149-355 micrometers; 35 wt % in mineral oil; added to 7.0 grams de-ionized water; compared with four other size ranges. On the procedure: In this example, samples incorporating various size ranges of anhydrous calcium chloride suspended in mineral oil at 35 wt % were evaluated for their ability to generate heat upon introduction into water.
The five size ranges of anhydrous calcium chloride evaluated were: (1) less than 149 microns; (2) 149-355 microns; (3) 710-1190 microns; (4) 1190-2000 microns; and (5) 2000-4000 microns. The samples of anhydrous calcium chloride (Dow Chemical, Midland, Mich.) were dispersed in mineral oil (available as Drakeol 7 LT NF from Penreco, Dickinson, Tex.). The as received anhydrous calcium chloride were screened dry using a Gilson Sonic Sieve (Gilson Company, Inc. Columbus, Ohio) to create two sizes, a 1190-2000 micron size and a 2000-4000 micron size. These powders were then suspended at 35 wt % in mineral oil to form a slurry using a cowles mixing blade. To achieve the smaller size distributions, the anhydrous calcium chloride powder required further processing. […]
All five samples were then individually added to 7.0 grams de-ionized water and the resulting temperature rise was measured using a Barnant Scanning Thermocouple (available from Therm-X of California, Hayward, Calif.).

The conditions of series [2]: particle size less than 250 micrometers; 35 wt % in mineral oil; added to 7.0 grams de-ionized water; compared with three other size ranges. On the procedure:
In this example, samples incorporating various size ranges of anhydrous magnesium chloride suspended in mineral oil at 35 wt % were evaluated for their ability to generate heat upon introduction into water.
The four size ranges of anhydrous magnesium chloride evaluated were: (1) 1000-1500 microns; (2) 600-1000 microns; (3) 250-600 microns; and (4) less than 250 microns. To produce the samples of anhydrous magnesium chloride in mineral oil, the various size ranges of anhydrous magnesium chloride powder (Magnesium Interface Inc. (Vancouver, B.C., Canada) were suspended at 35 wt % in mineral oil (available as Drakeol 7 LT NF from Penreco, Dickinson, Tex.). To produce the samples having anhydrous magnesium chloride with size ranges of 1000-1500 microns, 600-1000 microns, and 250-600 microns, the as received anhydrous magnesium chloride powder was hand screened into the size ranges desired and the powders collected. These powders were suspended at 35 wt % in mineral oil using a cowles mixing blade. […]
All four samples were then added to 7.0 grams de-ionized water and the resulting temperature rise was measured using a J type Thermocouple (available from Omega Engineering, Inc., Stamford, Conn.).

Read-outs that look alike come from different tables or passages of the source.

Regarding `[Ca+2].[Cl-].[Cl-]` [anhydrous calcium chloride, calcium chloride], the “rate of heat release (heat generation rate)” value in series [1] is reported as “highest rate”. With `[Cl-].[Cl-].[Mg+2]` [anhydrous magnesium chloride, magnesium chloride], the “rate of heat release (heat generation rate)” value in series [2] was “highest rate”.

The record behind these values is patent publication US20070145618A1, “Methods of making microencapsulated delivery vehicles” (Kimberly-Clark Worldwide, Inc., priority 2005, published 2007).
